± gives the standard deviation of the reports.
| glass transition temperature | SMILES |
| --- | --- |
| 277.00 °C | *c1ccc(Cc2ccc(NC(=O)c3cccc(-c4nc5cc(-c6ccc7[nH]c(-c8cccc(C(=O)Nc9ccc(Cc%10ccc(-n%11c(=O)c%12cc%13c(=O)n(*)c(=O)c%13cc%12c%11=O)cc%10)cc9)c8)nc7c6)ccc5[nH]4)c3)cc2)cc1 (repeat unit) |
| 262.50 °C | *C(=O)c1cccc(C(=O)c2ccc3c(c2)C(=O)N(c2ccc(C(c4ccc(N5C(=O)c6ccc(*)cc6C5=O)cc4)(C(F)(F)F)C(F)(F)F)cc2)C3=O)c1 (repeat unit) |
| 188.00 °C | *Cc1ccccc1CN(CC)c1ccc(/C=C(\C#N)C(=O)Nc2cccc(NC(=O)/C(C#N)=C/c3ccc(N(*)CC)cc3)c2)cc1 (repeat unit) |
| 20.00 °C | *CCCCCOC(=O)NNC(=O)CCCCCCCCC(=O)NNC(=O)O* (repeat unit) |
| 209.00 °C | *c1ccc(-c2ccc(N(*)c3cc(C(F)(F)F)cc(C(F)(F)F)c3)cc2)cc1 (repeat unit) |
| 46.00 °C | *CCCCCCOC(=O)c1cc(OCCCCCCOc2ccc(/N=N/c3ccc(C#N)cc3)cc2)cc(C(=O)OCCCCCCn2c(=O)c3cc4c(=O)n(*)c(=O)c4cc3c2=O)c1 (repeat unit) |
| 102.00 °C | *c1cc(CC(=O)OCCN(CC)c2ccc(/N=N/c3ccc([N+](=O)[O-])cc3)cc2)c(*)s1 (repeat unit) |
| 300.00 °C | *c1ccc(-c2ccc3nc(Oc4cc(-c5ccccc5)c5cc(*)ccc5n4)cc(-c4ccccc4)c3c2)cc1 (repeat unit) |
| 244.00 °C | *Oc1ccc(NC(=O)c2cc(C(=O)Nc3ccc(Oc4ccc(C(C)(C)c5ccc(*)cc5)cc4)cc3)cc(C(C)(C)C)c2)cc1 (repeat unit) |
| 158.00 °C | *CCCCCC(=O)Nc1ccc(Oc2ccc(Oc3ccc(NC(=O)CCCCCN4C(=O)c5ccc(C(=O)c6ccc7c(c6)C(=O)N(*)C7=O)cc5C4=O)cc3)cc2)cc1 (repeat unit) |
| 262.00 °C | *c1ccc(Oc2ccc(Oc3ccc(N4C(=O)c5ccc(Oc6ccc(C7(c8ccc(Oc9ccc%10c(c9)C(=O)N(*)C%10=O)cc8)CCCCCCCCCCC7)cc6)cc5C4=O)cc3)c(C(C)(C)C)c2)cc1 (repeat unit) |
| -5.00 °C | *O[Si](*)(C)CCCCCCOc1ccc(C(=O)Oc2ccc(C(=O)Oc3ccc(C=C(C(=O)OCCCCCCCCC)C(=O)OCCCCCCCCC)cc3)cc2)cc1 (repeat unit) |
| 250.00 °C | *CCCCCCc1ccc(-c2c(-c3ccccc3)cc(-c3ccc(-c4cc(-c5ccccc5)c(-c5ccc(*)cc5)c(-c5ccccc5)c4-c4ccccc4)cc3)c(-c3ccccc3)c2-c2ccccc2)cc1 (repeat unit) |
| 75.76 °C | *CCCCC(=O)Oc1ccc(OC(=O)c2ccc3c(c2)C(=O)N(*)C3=O)c(C)c1 (repeat unit) |
| 100.00 °C | *CC(*)(C)C(=O)OC1CCC(C(C)(C)C)CC1 (repeat unit) |
| 257.00 °C | *c1ccc(Oc2ccc(C3(c4ccc(Oc5ccc(N6C(=O)c7ccc(Oc8ccc(C9(c%10ccc(Oc%11ccc%12c(c%11)C(=O)N(*)C%12=O)cc%10)CCC(C(C)(C)C)CC9)cc8)cc7C6=O)cc5)cc4)CC4CC3C3CCCC43)cc2)cc1 (repeat unit) |
| -10.00 °C | *CC(*)OC(=O)C(F)(F)C(F)(F)C(F)(F)C(F)(F)C(F)(F)C(F)(F)C(F)(F)F (repeat unit) |
| 60.00 °C | *O[Si](C)(C)c1ccc([Si](*)(C)C)c2ccccc12 (repeat unit) |

| glass transition temperature | SMILES |
| --- | --- |
| 247.00 °C | *Nc1cc(NC(=O)c2ccc3cc(C(*)=O)ccc3c2)cc(C(=O)OCCOc2ccc(/C=C/C(=O)c3ccccc3)cc2)c1 (repeat unit) |
| 355.8 ± 42 °C | *c1ccc(N2C(=O)c3ccc(Oc4ccc5c(c4)C(=O)N(*)C5=O)cc3C2=O)cc1 (repeat unit) |
| 60.00 °C | *O[Si](*)(C)CCCOc1ccc(C(=O)Oc2ccc(-c3ccc(OC(=O)c4cc(OCC(C)CC)c(OCC(C)CC)c(OCC(C)CC)c4)cc3)cc2)cc1 (repeat unit) |
| 107.00 °C | *c1cccc(NC(=O)CCCCCCCCCCC(=O)Nc2cccc(S(*)(=O)=O)c2)c1 (repeat unit) |
| 240.00 °C | *C(=O)NNC(=O)c1ccc([Si](c2ccccc2)(c2ccccc2)c2ccc(C(=O)NNC(=O)c3ccc(*)nc3)cc2)cc1 (repeat unit) |
| 48.00 °C | *Nc1ccc(Cc2ccc(NC(=O)NCCCCCCCCCCCCCCCCCCNC(*)=O)cc2)cc1 (repeat unit) |
| 250.00 °C | *C(=O)Nc1ccc(C(c2ccc(NC(=O)c3ccc4c(c3)C(=O)N(c3ccc(-c5ccc(N6C(=O)c7ccc(*)cc7C6=O)c(OC)c5)cc3OC)C4=O)cc2)(C(F)(F)F)C(F)(F)F)cc1 (repeat unit) |
| 190.00 °C | *CCCCCCNC(=O)c1ccc(C2(C)CC(C)(C)c3ccc(C(=O)N*)cc32)cc1 (repeat unit) |
| 297.00 °C | *c1ccc(-c2ccc(C3(*)c4ccccc4-c4ccccc43)cc2)cc1 (repeat unit) |
| 68.00 °C | *CC(*)C(=O)OCCCCn1c2ccccc2c2ccccc21 (repeat unit) |
| 145.00 °C | *Oc1cccc(Oc2cccc(*)c2)c1C#N (repeat unit) |
| 263.00 °C | *Oc1ccc(S(=O)(=O)c2ccc(Oc3ccc(NC(=O)c4cc(NC(=O)c5ccc(OC(C)=O)cc5)cc(C(=O)Nc5ccc(*)cc5)c4)cc3)cc2)cc1 (repeat unit) |
| 40.00 °C | */C=C(/*)C(CCC)[Si](C)(C)CCCCCC (repeat unit) |
| 290.00 °C | *C(=O)c1cc2c(cc1Cl)C(=O)N(c1cc(N3C(=O)c4cc(*)c(Cl)cc4C3=O)cc(C(C)(C)C)c1)C2=O (repeat unit) |
| 146.00 °C | *Oc1ccc(Oc2ccc(C(=O)c3ccc(*)cc3)cc2)cc1-c1ccc(Oc2ccccc2)cc1 (repeat unit) |
| 144.00 °C | *CC(*)(C)C(=O)OCCN(CC)c1ccc(/N=N/c2ccc(S(C)(=O)=O)cc2)cc1 (repeat unit) |
| 15.00 °C | *CC(*)C(=O)OCCCCCCCCCCCn1c2ccccc2c2ccccc21 (repeat unit) |
| 224.00 °C | *c1ccc2c(c1)C(=O)N(c1cccc(Oc3ccc(C(c4ccc(Oc5cccc(N6C(=O)c7ccc(C(*)(C(F)(F)F)C(F)(F)F)cc7C6=O)c5)cc4)(C(F)(F)F)C(F)(F)F)cc3)c1)C2=O (repeat unit) |

| SMILES | glass transition temperature |
| --- | --- |
| *CCN(*)C(=O)CCCCCC (repeat unit) | 10.00 °C |
| *CC(*)n1cncn1 (repeat unit) | 165.00 °C |
| *CC(*)(C)C(=O)OCCC (repeat unit) [Poly(n-propyl methacrylate) ] | 35 ± 5.4 °C |
| *CC(CC)(CC)CO* (repeat unit) | -30.00 °C |
| *Oc1ccc(CC(*)=O)cc1 (repeat unit) | 117.00 °C |
| *Oc1ccc(C(=O)Nc2ccc(C(c3ccc(NC(=O)c4ccc(*)cc4)cc3)(P3(=O)Oc4ccccc4-c4ccccc43)P3(=O)Oc4ccccc4-c4ccccc43)cc2)cc1 (repeat unit) | 243.00 °C |
| *CC(*)C(=O)NC(C)(C)CS(=O)(=O)O (repeat unit) | 85.00 °C |
| *CC(*)c1ccccc1OC(C)=O (repeat unit) | 118.00 °C |

Source: the PolyMetriX glass transition set
